Assay results published in PMC9974934, “Bifunctional small molecules targeting PD-L1/CXCL12 as dual immunotherapy for cancer treatment” (Signal Transduction and Targeted Therapy, 2023).
Where two headings read alike, the source gives them in different places. Values belong to the compound of their own block, whether it stands above or below them.

Legend:
PD-1/PD-L1 interaction = molecular target: T1, PD-1/PD-L1 interaction (Homo sapiens, UniProt Q9NZQ7); experiment: PD-1/PD-L1 HTRF assay; format: biochemical; details: read-out: IC50, anti-PD-1/PD-L1 potency
T1 construct: purchased Cisbio 64ICP01PEG&64ICP01PEH

[1] = Serum biochemistry for liver and kidney function; format: in vivo, mouse; details: mice
B16-F10 melanoma tumors = experiment: In vivo efficacy in B16-F10 melanoma model; details: mouse B16-F10 model
Excerpt: (§1) In vivo efficacy study in a melanoma model and CT26 tumor model. Protocols for animal experiments (B16-F10 and CT-26 tumor model) were approved by the NIACEC (National Institutional Animal Care & Ethical Committee) at SMU (Southern Medical University). C57BL/6 male mice (6-8 weeks old) were purchased from Liaoning Changsheng Biosciences. Briefly, A total of 2×10^5 B16-F10 melanoma cells or CT26 cells (1×10^6) were inoculated into mouse (in the right flank) according to protocols of tumor transplantation studies in mice. […] Tumor volume was measured with a traceable electronic digital caliper (every 2 days).

[2] = test system: CT-26 colon syngeneic tumor; experiment: In vivo efficacy in CT-26 colon syngeneic tumor model; set-up: species or system mouse; details: 75 mg/kg for 17 days
Excerpt: as §1
Figure. […] Then, sacrificed and tumors weights and volumes were measured. (A) Images of tumors and weight of tumors; (B) changes of body weights of mice during treatment; (C) Individual tumor growth curves over time (D) changes of tumor volume during treatment. *P < 0.05, **P < 0.01, and ****P < 0.0001 (n=3).

[3] = Creatine kinase isoenzyme assay; format: in vivo, mouse; details: mice
murine CXCL12 = molecular target: T2, murine CXCL12 (Mus musculus, UniProt P40224); experiment: SPR binding to mCXCL12
T2 construct: purchased Sino Biological Biotics Inc 50025-MNAE-2
Method: (§2) SPR, ITC, CD assay. […] SPRi assay was carried out using PlexAray HT.

[4] = Pharmacokinetic study in male SD rats; format: in vivo, rat; details: for MRT last: read-out: MRT(0–t); for MRT inf: read-out: MRT(0–∞)
Method: Pharmacokinetic Study in Male SD Rats. Male SD rats (300–360 g) were purchased from Liaoning Changsheng Biotechnology Co., Ltd. Diet. […] The mobile phase consisted of a mixture of solvent A (acetonitrile) and solvent B (formic acid/ ultrapure water, 1:1000, v/v). The linear gradient program for the mobile phase was set as follows: 0 min 10% A; 0.5 min 30% A; 1 min 95% A; 2 min 95% A; 2.3 min 10% A. The flow rate of the mobile phase was 0.4 mL/min, and the injection volume was 2 μL. The XEVO TQD triple quadrupole mass spectrometer was equipped with an electrospray ionization (ESI) source; multiple reaction monitoring (MRM) mode was selected for quantitation. The Mass Lynx 4.1 software (Waters Corp.) was used for data acquisition. Mass spectral data were obtained in positive electrospray mode (ESI+) in MRM mode.

[5] = H&E staining of mice organs; format: in vivo, mouse
human CXCL12 = molecular target: T3, human CXCL12 (Homo sapiens, UniProt P48061); experiment: SPR binding to hCXCL12
T3 construct: purchased Sino Biological Biotics Inc 13511-HNCE-2
Method: as §2

[6] = test system: CXCL12-mediated cell migration, THP-1 cells; experiment: Transwell chemotaxis test in THP-1 cells; format: cell-based
[7] = test system: HepG2 cells co-cultured with Jurkat T cells; experiment: HepG2 cell mortality in Jurkat T & HepG2 co-culture model; format: cell-based; details: CCK-8
Method: Assessment of HepG2 cell mortality rate (Cellular). Firstly, HepG2 cells were stimulated with human IFN-γ (Peprotech, catalog number: 300-02) to express hPD-L1 stably. Jurkat T cells were stimulated with PHA-P (Invivogen, catalog number: inh-phap). Then, HepG2 (5×10^4) and Jurkat T cells (5×10^4) were added to the co-cultured model. […] Finally, the Jurkat T cells were completely removed by washing the supernatant (200 μL) with cold PBS for 4 times. The mortality rate of HepG2 cells was determined by CCK-8 assay (Dojindo, CCK8, 500 test).

[8] = test system: CXCL12-mediated Ca2+ cellular responses in THP-1 cells; experiment: Calcium flux assay in THP-1 cells; format: cell-based; details: spectrofluorometry
Method: Calcium flux assays. THP-1 cells were incubated with Fluo-4AM (Invitrogen, catalog number: F14201) calcium-dependent fluorophore for 0.5 h, washed and resuspended. […] Ca^2+ flux was measured (Ex = 488 nm; Em = 520 nm).

[9] = rat, plasma, iv, I.V. 1 mg/kg, mean ± SD
[10] = rat, plasma, po, P.O. 18 mg/kg, mean ± SD

T1 sequence (Q9NZQ7 19-238 limits assumed): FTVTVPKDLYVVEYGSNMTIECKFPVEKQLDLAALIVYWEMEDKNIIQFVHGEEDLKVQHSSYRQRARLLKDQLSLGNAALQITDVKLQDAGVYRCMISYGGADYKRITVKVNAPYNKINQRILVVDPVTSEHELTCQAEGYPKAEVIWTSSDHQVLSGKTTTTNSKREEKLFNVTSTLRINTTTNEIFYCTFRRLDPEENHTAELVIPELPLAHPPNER
T2 sequence (P40224 22-93): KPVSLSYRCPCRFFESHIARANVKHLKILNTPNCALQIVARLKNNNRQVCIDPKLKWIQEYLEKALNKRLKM
T3 sequence (P48061 22-93): as the sequence (P40224 22-93) above, with I18V, L70F counted along it

SMILES: CCOC(=O)COc1cc(OCc2cccc(-c3ccccc3)c2C)c(Cl)cc1CN1CCCCC1C(=O)NCCC(=O)NCc1ccc(COc2ccc(/C=C/C(=O)c3ccc(OC)cc3)cc2OC)cc1 (centres unmarked) [CP13]
IC50 (PD-1/PD-L1 interaction): > 1000 nM

SMILES: CCOC(=O)COc1cc(OCc2cccc(-c3ccccc3)c2C)c(Cl)cc1CN1CCCCC1C(=O)NCc1ccc(COc2ccc(/C=C/C(=O)c3ccc(OC)cc3)cc2OC)cc1 (centres unmarked) [CP14]
IC50 (PD-1/PD-L1 interaction): > 1000 nM

SMILES: COc1ccc(C(=O)/C=C/c2ccc(OCc3ccc(CNC(=O)CCCNC(=O)C(C)(C)NCc4cc(Cl)c(OCc5cccc(-c6ccccc6)c5C)cc4OCc4cccc(C#N)c4)cc3)c(OC)c2)cc1 [CP9]
IC50 (PD-1/PD-L1 interaction): 101 nM

SMILES: COc1ccc(C(=O)/C=C/c2ccc(OCc3ccc(CNC(=O)C4CCCCN4Cc4cc(Cl)c(OCc5cccc(-c6ccccc6)c5C)cc4OCc4cccc(C#N)c4)cc3)c(OC)c2)cc1 (centres unmarked) [CP17]
IC50 (PD-1/PD-L1 interaction): 126 nM
melting point: 128.1 to 128.9 °C

SMILES: COc1ccc(C(=O)/C=C/c2ccc(OCc3ccc(CNC(=O)C4CCCCN4Cc4ccc(OCc5cccc(-c6ccccc6)c5C)c(Br)c4)cc3)c(OC)c2)cc1 (centres unmarked) [CP2]
IC50 (PD-1/PD-L1 interaction): > 1000 nM
melting point: 124.8 to 125.9 °C

SMILES: COc1ccc(C(=O)/C=C/c2ccc(OCc3ccc(CNC(=O)C(C)(C)NCc4cc(Cl)c(OCc5cccc(-c6ccccc6)c5C)cc4OCc4cccc(C#N)c4)cc3)c(OC)c2)cc1 [CP10]
IC50 (PD-1/PD-L1 interaction): > 1000 nM

SMILES: COc1ccc(C(=O)/C=C/c2ccc(OCc3ccc(CNC(=O)C4CCN(C(=O)C5CCCCN5Cc5cc(Cl)c(OCc6cccc(-c7ccccc7)c6C)cc5OCc5cccc(C#N)c5)CC4)cc3)c(OC)c2)cc1 (centres unmarked) [CP21]
Hepatotoxicity and nephrotoxicity (serum biochemistry) [1]: did not induce hepatotoxicity and nephrotoxicity
Body weights of mice during treatment (B16-F10 melanoma tumors): did not change markedly
Tumor weights and volumes (B16-F10 melanoma tumors; 75 and 125 mg/kg): dose-dependently decreased
Tumor growth inhibition (TGI) (B16-F10 melanoma tumors; oral 125 mg/kg): 58.5%
In vivo antitumor efficacy [2]: similarly high in vivo antitumor efficacy
Cardiotoxicity (creatine kinase isoenzyme assay) [3]: did not cause cardiotoxicity
Kd (murine CXCL12): 76.5 nM
CL ([4]; P.O. 18 mg/kg, mean ± SD): 2347 ± 83.3 mL/min/kg
Vz ([4]; P.O. 18 mg/kg, mean ± SD): 467.4 ± 184.8 L/kg
Tmax ([4]; rat, plasma, iv, I.V. 1 mg/kg): 0.083 h
AUC(0-inf) [4, 9]: 2138 ± 18.3 ng·h/mL
AUC(0-t) [4, 9]: 2032 ± 11.4 ng·h/mL
Cmax [4, 9]: 326 ± 58.1 ng/mL
clearance [4, 9]: 8.33 mL/min/kg
half-life [4, 9]: 12.4 ± 0.3 h
MRT last [4, 9]: 11.3 ± 0.4 h
MRT inf [4, 9]: 14 ± 0.5 h
Vd ([4]; rat, plasma, iv, I.V. 1 mg/kg, mean ± SD, read-out: Vz): 8.4 ± 0.2 L/kg
AUC(0-inf) [4, 10]: 128 ± 4.6 ng·h/mL
AUC(0-t) [4, 10]: 128 ± 4.8 ng·h/mL
Cmax [4, 10]: 20.5 ± 3.1 ng/mL
Tmax [4, 10]: 6.3 ± 0.8 h
half-life [4, 10]: 2.2 ± 0.8 h
MRT last [4, 10]: 5.9 ± 0.2 h
MRT inf [4, 10]: 6 ± 0.2 h
Morphological aberration of organs (H&E staining) [5]: no apparent morphological aberration
Kd (human CXCL12): 160 nM
CXCL12-mediated cell migration [6]: dose-dependently inhibited
Death of HepG2 cells [7]: dose-dependently promoted
CXCL12-induced calcium responses [8]: dose-dependently inhibited

SMILES: COc1ccc(C(=O)/C=C/c2ccc(OCc3ccc(CNC(=O)CCCNC(=O)C4CCCCN4Cc4cc(Cl)c(OCc5cccc(-c6ccccc6)c5C)cc4OCc4ccc(OC(F)(F)F)cc4)cc3)c(OC)c2)cc1 (centres unmarked) [CP8]
IC50 (PD-1/PD-L1 interaction): > 1000 nM

SMILES: COc1ccc(C(=O)/C=C/c2ccc(OCc3ccc(CNC(=O)CCCCNC(=O)C(C)(C)NCc4cc(Cl)c(OCc5cccc(-c6ccccc6)c5C)cc4OCc4cccc(C#N)c4)cc3)c(OC)c2)cc1 [CP12]
IC50 (PD-1/PD-L1 interaction): > 1000 nM

SMILES: COc1ccc(C(=O)/C=C/c2ccc(OCc3ccc(CNC(=O)CCNC(=O)C(C)(C)NCc4cc(Cl)c(OCc5cccc(-c6ccccc6)c5C)cc4OCc4cccc(C#N)c4)cc3)c(OC)c2)cc1 [CP11]
IC50 (PD-1/PD-L1 interaction): 870 nM

SMILES: COc1ccc(C(=O)/C=C/c2ccc(OCc3ccc(CNC(=O)C4CCN(C(=O)C5CCCCN5Cc5ccc(OCc6cccc(-c7ccccc7)c6C)c(Br)c5)CC4)cc3)c(OC)c2)cc1 (centres unmarked) [CP3]
IC50 (PD-1/PD-L1 interaction): > 1000 nM

Next, values leading:

IC50 (PD-1/PD-L1 interaction): > 1000 nM
SMILES: CCOC(=O)COc1cc(OCc2cccc(-c3ccccc3)c2C)c(Cl)cc1CN1CCCCC1C(=O)NCCCC(=O)NCc1ccc(COc2ccc(/C=C/C(=O)c3ccc(OC)cc3)cc2OC)cc1 (centres unmarked) [CP16]

IC50 (PD-1/PD-L1 interaction): > 1000 nM
SMILES: COc1ccc(C(=O)/C=C/c2ccc(OCc3ccc(CNC(=O)C4CCN(C(=O)C5CCCCN5Cc5cc(Cl)c(OCc6cccc(-c7ccccc7)c6C)cc5OCc5ccc(OC(F)(F)F)cc5)CC4)cc3)c(OC)c2)cc1 (centres unmarked) [CP7]

IC50 (PD-1/PD-L1 interaction): > 1000 nM
SMILES: COc1ccc(C(=O)/C=C/c2ccc(OCc3ccc(CNC(=O)CCCNC(=O)C4CCCCN4Cc4ccc(OCc5cccc(-c6ccccc6)c5C)c(Br)c4)cc3)c(OC)c2)cc1 (centres unmarked) [CP4]

IC50 (PD-1/PD-L1 interaction): 88.5 nM
SMILES: COc1ccc(C(=O)/C=C/c2ccc(OCc3ccc(CNC(=O)CCNC(=O)C4CCCCN4Cc4cc(Cl)c(OCc5cccc(-c6ccccc6)c5C)cc4OCc4cccc(C#N)c4)cc3)c(OC)c2)cc1 (centres unmarked) [CP20]

IC50 (PD-1/PD-L1 interaction): > 1000 nM
SMILES: COc1ccc(C(=O)/C=C/c2ccc(OCc3ccc(CNC(=O)CCNC(=O)C4CCCCN4Cc4ccc(OCc5cccc(-c6ccccc6)c5C)c(Br)c4)cc3)c(OC)c2)cc1 (centres unmarked) [CP5]

IC50 (PD-1/PD-L1 interaction): 107 nM
melting point: 120.1 to 120.9 °C
SMILES: COc1ccc(C(=O)/C=C/c2ccc(OCc3ccc(CNC(=O)CCCNC(=O)C4CCCCN4Cc4cc(Cl)c(OCc5cccc(-c6ccccc6)c5C)cc4OCc4cccc(C#N)c4)cc3)c(OC)c2)cc1 (centres unmarked) [CP18]

IC50 (PD-1/PD-L1 interaction): > 1000 nM
SMILES: COc1ccc(C(=O)/C=C/c2ccc(OCc3ccc(CNC(=O)CCCCNC(=O)C4CCCCN4Cc4ccc(OCc5cccc(-c6ccccc6)c5C)c(Br)c4)cc3)c(OC)c2)cc1 (centres unmarked) [CP1]

IC50 (PD-1/PD-L1 interaction): > 1000 nM
SMILES: COc1ccc(C(=O)/C=C/c2ccc(OCc3ccc(CNC(=O)CCCCNC(=O)C4CCCCN4Cc4cc(Cl)c(OCc5cccc(-c6ccccc6)c5C)cc4OCc4cccc(C#N)c4)cc3)c(OC)c2)cc1 (centres unmarked) [CP19]

IC50 (PD-1/PD-L1 interaction): > 1000 nM
SMILES: COc1ccc(C(=O)/C=C/c2ccc(OCc3ccc(CNC(=O)C4CCCCN4Cc4cc(Cl)c(OCc5cccc(-c6ccccc6)c5C)cc4OCc4ccc(OC(F)(F)F)cc4)cc3)c(OC)c2)cc1 (centres unmarked) [CP6]

IC50 (PD-1/PD-L1 interaction): > 1000 nM
SMILES: CCOC(=O)COc1cc(OCc2cccc(-c3ccccc3)c2C)c(Cl)cc1CN1CCCCC1C(=O)N1CCC(C(=O)NCc2ccc(COc3ccc(/C=C/C(=O)c4ccc(OC)cc4)cc3OC)cc2)CC1 (centres unmarked) [CP15]
